Source: patent US12203909B2, “Compositions for conjugating a sulfonephthalein dye to a substrate” (priority 2018, dated 2025)
Where two headings read alike, the source gives them in different places.

How the values were obtained:
[1] = UV-Vis spectrum of HPTS as a function of pH, pH response range; assay type: physicochemical; settings: RGB detectors with maximum sensitivity at 460 nm/520 nm/630 nm
Text: An example of modification of 8-hydroxypyrene-1,3,6-trisulfonic acid as its sodium salt is shown below. The 8-hydroxypyrene-1,3,6-trisulfonic acid can also be modified as a salt of a cation other than sodium, such as potassium or ammonium. This compound is suitable as a pH sensitive probe for pH range of 7.0-8.0 for red, green and blue combination photodiode (RGB) detectors with maximum sensitivity at 460 nm/520 nm/630 nm.
The UV-Vis spectrum of HPTS as a function of pH is shown in FIG. 7, while the pH response range for this dye at 454 nm is shown in FIG. 8.

[2] = SPD^−1/SPD^−2 transition, cited from earlier work
[3] = SPD derivative UV-Vis spectral and chemical properties (Table 1); assay type: physicochemical; settings: for λ1, nm (SPD^−1 form): pH sensitive wavelength of SPD^−1
Text: The HA and A^− concentrations are related by the Henderson-Hasselbalch equation: pH=pKa+log[A^−]/[H—A] where Ka is the acid dissociation constant, pKa is −log Ka, and [A^−] and [HA] are the concentrations of dissociated and undissociated dye acid form, respectively.
Such compounds are commonly used as pH sensitive indicators for determination of pH of aqueous solutions. […] The structure of suitable SPDs and their conjugate bases are shown generically below, and their spectral and chemical properties are reported in Table 1.
Unmodified SPDs have been used for the preparation of pH sensitive indicators adsorbed on the surface of suitable polymeric materials, such as cellulose based materials. […] In general, substitution with electron acceptor substituents (e.g., Cl, Br in the C2/C5 positions) results in a pKa shift to a lower pH range relative to PR, and substitution with electron donor substituents (e.g., C1-C3 alkyl in the C2, C4 and C5 positions) results in a pKa shift to a higher pH range. […] Examples of such SPDs include bromocresol purple and bromothymol blue.
Measurement of absorbance at specific wavelengths allows for the determination of the concentrations of the acidic and basic forms of the dye. These wavelengths are typically selected based upon the absorbance maxima for each specific dye, although other wavelengths can be employed albeit with diminished sensitivity.

[4] = pH sensitive wavelength of SPD^−2

Structure (SMILES)	pKa* SPD^−1/SPD^−2 [2]	λ1, nm (SPD^−1 form) [3] [nm]	λ2, nm (SPD^−2 form) [3, 4] [nm]	further results
O=S(=O)(O)c1cc(O)c2ccc3c(S(=O)(=O)O)cc(S(=O)(=O)O)c4ccc1c2c34 [8-hydroxypyrene-1,3,6-trisulfonic acid]	–	–	–	pH range for which suitable as pH sensitive probe [1]: 7.0-8.0
Cc1c(C2(c3cc(Br)c(O)c(Br)c3C)OS(=O)(=O)c3ccccc32)cc(Br)c(O)c1Br [Bromocresol Green (BrCrG), Bromocresol Green]	4.7	432	~614	–
Cc1cc(C2(c3cc(C)c(O)c(Br)c3)OS(=O)(=O)c3ccccc32)cc(Br)c1O [Bromocresol Purple (BrCrP), Bromocresol Purple]	6.3	432	589	–
O=S1(=O)OC(c2cc(Br)c(O)c(Br)c2)(c2cc(Br)c(O)c(Br)c2)c2ccccc21 [Bromophenol Blue]	4.1	436	591	–
Cc1c(C2(c3cc(C(C)C)c(O)c(Br)c3C)OS(=O)(=O)c3ccccc32)cc(C(C)C)c(O)c1Br [Bromothymol Blue]	7.1	427	602	–
O=S1(=O)OC(c2ccc(O)c(Cl)c2)(c2ccc(O)c(Cl)c2)c2ccccc21 [Chlorophenol Red (ClPR), Chlorophenol Red]	6.7	436	575	–
Cc1cc(C2(c3ccc(O)c(C)c3)OS(=O)(=O)c3ccccc32)ccc1O [Cresol Red (CR), Cresol Red]	–	430	–	–
Cc1c(C2(c3cc(C(C)C)c(O)c(CN(CC(=O)[O-])CC(=O)[O-])c3C)OS(=O)(=O)c3ccccc32)cc(C(C)C)c(O)c1CN(CC(=O)[O-])CC(=O)[O-].[Na+].[Na+].[Na+].[Na+] [Methylthymol Blue]	6.0-13.0	442	614	–
O=S1(=O)OC(c2ccc(O)cc2)(c2ccc(O)cc2)c2ccccc21 [Phenol Red (PR), Phenol Red]	7.4	431	557	pKa* SPD^−1/SPD^−2 ([2]; listed as Phenol red (PR)): approximately 7.4; pKa (Table 3, PR derivatives): 7.4; λ1, nm (Table 3, PR derivatives): 431 nm; λ2, nm (Table 3, PR derivatives): 557 nm; λ1^pH 6/pH 9 Abs ratio (calculated as OD 430 nm pH 6.0/OD 430 nm pH 9.0): 5.1; λ2, nm (SPD^−2 form) ([3]; pH sensitive wavelength of SPD^−2, listed as PR): approximately 557 nm
Cc1cc(O)c(C(C)C)cc1C1(c2cc(C(C)C)c(O)cc2C)OS(=O)(=O)c2ccccc21 [Thymol Blue]	8.9	432	595	–
Cc1cc(C2(c3cc(C)c(O)cc3C)OS(=O)(=O)c3ccccc32)c(C)cc1O [Xylenol Blue]	8.5	436	594	–
Cc1cc(C2(c3cc(C)c(O)c(CN(CC(=O)O)CC(=O)O)c3)OS(=O)(=O)c3ccccc32)cc(CN(CC(=O)O)CC(=O)O)c1O [Xylenol Orange]	6.0-11.7	436	583	–
Cc1cc(O)ccc1C1(c2ccc(O)cc2C)OS(=O)(=O)c2ccccc21 [m-Cresol Purple (mCrP), m-Cresol Purple]	8.3	432	578	–
